Legend:
Experiment in all cases: relative viability (nuclei count vs DMSO), 5 days (fraction); higher = more cells survive
Crizotinib + Dasatinib = compound: C[C@@H](Oc1cc(-c2cnn(C3CCNCC3)c2)cnc1N)c1c(Cl)ccc(F)c1Cl [Crizotinib] + Cc1nc(Nc2ncc(C(=O)Nc3c(C)cccc3Cl)s2)cc(N2CCN(CCO)CC2)n1 [Dasatinib] (partner 0.075 µM)
Method in brief: (§1)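 Relative viability was taken as the ratio of nuclei in treated wells to nuclei in vehicle wells. Lung cancer cell lines in 1536-well plates received compounds by pin tool one day after seeding, either one drug alone or a fixed anchor-drug dose plus five library-drug doses (not always all listed) in √10 steps. Nuclei were counted on 4× images after 5 days of treatment, and values are medians of duplicate plates.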

Carfilzomib + Luminespib = compound: CC(C)C[C@H](NC(=O)[C@H](CCc1ccccc1)NC(=O)CN1CCOCC1)C(=O)N[C@@H](Cc1ccccc1)C(=O)N[C@@H](CC(C)C)C(=O)[C@@]1(C)CO1 [Carfilzomib] + CCNC(=O)c1noc(-c2cc(C(C)C)c(O)cc2O)c1-c1ccc(CN2CCOCC2)cc1 [Luminespib] (partner 0.01 µM)
Method in brief: as §1

Olaparib + Crizotinib = compound: O=C(c1cc(Cc2n[nH]c(=O)c3ccccc23)ccc1F)N1CCN(C(=O)C2CC2)CC1 [Olaparib] + C[C@@H](Oc1cc(-c2cnn(C3CCNCC3)c2)cnc1N)c1c(Cl)ccc(F)c1Cl [Crizotinib] (partner 1 µM)
Method in brief: as §1

Olaparib + Tozasertib = compound: O=C(c1cc(Cc2n[nH]c(=O)c3ccccc23)ccc1F)N1CCN(C(=O)C2CC2)CC1 [Olaparib] + Cc1cc(Nc2cc(N3CCN(C)CC3)nc(Sc3ccc(NC(=O)C4CC4)cc3)n2)n[nH]1 [Tozasertib] (partner 0.1 µM)
Method in brief: as §1

Row | Cell Line | relative viability (Crizotinib + Dasatinib; first compound 0.01 µM) | relative viability (Crizotinib + Dasatinib; first compound 0.03162 µM) | relative viability (Crizotinib + Dasatinib; first compound 0.1 µM) | relative viability (Crizotinib + Dasatinib; first compound 0.3162 µM) | relative viability (Crizotinib + Dasatinib; first compound 1 µM) | relative viability (Carfilzomib + Luminespib; first compound 0.001 µM) | relative viability (Carfilzomib + Luminespib; first compound 0.003162 µM) | relative viability (Carfilzomib + Luminespib; first compound 0.01 µM) | relative viability (Carfilzomib + Luminespib; first compound 0.03162 µM) | relative viability (Carfilzomib + Luminespib; first compound 0.1 µM) | relative viability (Olaparib + Crizotinib; first compound 0.08 µM) | relative viability (Olaparib + Crizotinib; first compound 0.253 µM) | relative viability (Olaparib + Crizotinib; first compound 2.53 µM) | relative viability (Olaparib + Crizotinib; first compound 8 µM) | relative viability (Olaparib + Tozasertib; first compound 0.08 µM) | relative viability (Olaparib + Tozasertib; first compound 0.253 µM) | relative viability (Olaparib + Tozasertib; first compound 2.53 µM) | relative viability (Olaparib + Tozasertib; first compound 8 µM)
1 | NCI-H2228 | 0.459 | 0.566 | 0.575 | 0.26 | 0.112 | 0.145 | 0.152 | 0.161 | 0.123 | 0.144 | 0.603 | 0.437 | 0.473 | 0.362 | 0.324 | 0.207 | 0.201 | 0.136
2 | NCI-H2347 | 0.305 | 0.272 | 0.312 | 0.244 | 0.25 | 0.509 | – | 0.266 | 0.346 | 0.201 | 0.672 | 0.657 | 0.705 | 0.622 | 0.548 | 0.48 | 0.483 | 0.54
3 | NCI-H2405 | 0.244 | 0.237 | 0.192 | 0.217 | 0.196 | – | 0.873 | 0.851 | 0.759 | 0.32 | 0.948 | 0.83 | 0.769 | 0.809 | 0.807 | 0.722 | 0.66 | 0.654
4 | NCI-H3122 | 0.786 | 0.799 | 0.836 | 0.74 | 0.735 | 0.064 | 0.0963 | 0.106 | 0.107 | 0.106 | 0.266 | 0.292 | 0.266 | 0.28 | 0.466 | 0.376 | 0.457 | 0.346
5 | PC-3 [JPC-3] | 1.07 | 0.996 | 1.01 | 1.02 | 0.975 | 0.754 | 0.706 | 0.742 | 0.646 | 0.331 | 1 | 0.902 | 1.01 | 0.928 | 0.913 | 0.855 | 0.946 | 0.843
6 | PC-14 | 0.286 | 0.241 | 0.245 | 0.201 | 0.238 | 0.143 | 0.176 | 0.18 | 0.117 | 0.109 | 0.883 | 0.824 | 0.849 | 0.657 | 0.602 | 0.557 | 0.536 | 0.419
7 | RERF-LC-KJ | 0.751 | 0.817 | 0.751 | 0.81 | 0.691 | 1.24 | 1.29 | 1.32 | 0.609 | 0.224 | 0.811 | 0.775 | 0.911 | 0.755 | 0.531 | 0.453 | 0.505 | 0.475
8 | SK-LU-1 | 0.178 | 0.16 | 0.181 | 0.189 | 0.159 | 0.238 | 0.223 | 0.211 | 0.154 | 0.13 | 1.15 | 0.774 | 0.801 | 0.621 | 0.355 | 0.323 | 0.335 | 0.247
9 | SK-MES-1 | 0.385 | 0.373 | 0.418 | 0.312 | 0.341 | 0.854 | 0.902 | 0.759 | 0.544 | 0.172 | 0.982 | 0.89 | 0.885 | 0.668 | 0.962 | 0.828 | 0.818 | 0.562
